According to the SangsterLogP compilation:

Q: With `Nc1cccc2ncccc12` as the molecule, how does the logP read?
A: 1.27

Q: For `Nc1cccc2c(N)cccc12`, which logP is on record?
A: 0.89

Q: Which logP does the source give for `O=[N+]([O-])c1ccc2nc[nH]c2c1` here?
A: 1.5

Q: For `Nc1cc2ccccc2cc1N`, which logP is on record?
A: 1.54

Q: With `Cc1ccc(N)c([N+](=O)[O-])c1` as the molecule, how does the logP read?
A: 1.82

Q: With `Nc1ccc2[nH]ccc2c1` as the molecule, how does the logP read?
A: 1.13

Q: With `O=[N+]([O-])c1ccc2nn[nH]c2c1` as the molecule, how does the logP read?
A: 1.95

Q: For `Nc1ccc2[nH]ncc2c1`, which logP is on record?
A: 0.65

Q: For `Cc1cc(N)c([N+](=O)[O-])cc1C`, which logP is on record?
A: 2.07

Q: For `Nc1cccc2cccc(N)c12`, which logP is on record?
A: 1.78

Q: For `Nc1nc2ccccc2[nH]1`, which logP is on record?
A: 1.34

Q: For `O=[N+]([O-])c1ccncc1`, which logP is on record?
A: 0.6
